Reference: patent US6051417A, “Prostate cancer drug screening using hKLK2 enhancer” (Calydon, Inc., priority 1997, dated 2000)
Read-outs that look alike come from different tables or passages of the source.

Columns and labels:
[1] = test system: PSE-Luc (PSA enhancer/promoter-luciferase) in LNCaP cells; test: Transient transfection of LNCaP cells with PSE-Luc, luciferase assay
[2] = test system: CN1013 cells; test: Metabolism of dihydrotestosterone in CN1013 cell line (Testosterone ELISA)
[3] = as above; settings: human, cn1013 cells
[4] = test system: PSE-Luc/LNCaP cell line CN1013; test: Stably transfected PSE-Luc/LNCaP cell line CN1013 (and subclone CN1013.7), luciferase assay; settings: for inhibition of luciferase expression after induction with 1 nM R1881: CN1013, all anti-androgen concentrations examined; for concentration, relative to R1881, giving luciferase expression levels similar to R1881 / luciferase expression at physiological concentrations: CN1013, anti-androgen alone
[5] = test system: CN322 or CN355 in OVCAR, 293, PC3 cells; test: hKLK2 enhancer/promoter luciferase activity in other cell lines (OVCAR, 293, PC3); assay type: cell-based; settings: Homo sapiens, 48 h, read-out: fold induction of activity
Experimental: FIG. 7 is a bar graph depicting the activity of the hKLK2 enhancer/promoter in various cell lines. Various cell lines were transfected with either CN322 or CN355, and, after an overnight incubation in complete medium, were incubated in the presence or absence of R1881. CN355 contains a 3.8 kb fragment from approximately -6200 to approximately -2400 of the hKLK2 enhancer fused to the minimal hKLK2 promoter to control luciferase expression. The cell lines used were: OVCAR, human ovarian adenocarcinoma; 293, transformed human primary embryonal kidney; PC3, human grade IV prostate adenocarcinoma; LNCaP, metastatic human prostate adenocarcinoma.
(§1) This 3.8 kbp fragment was fused upstream of the minimal hKLK2 promoter and then cloned upstream of the luc gene, creating CN355. A variety of cell lines were transfected with CN322 or CN355 by incubating them with the complexes in complete media overnight. The complexes were then aspirated and the media was replaced with stripped serum media. The media in half of the plates was supplemented with 1 nM R1881. The cells were then harvested 48 hours after the removal of the DNA-lipid complexes and tested for luciferase activity.

[6] = test system: hKLK2 promoter/enhancer-luciferase constructs in LNCaP cells; test: hKLK2 promoter/enhancer-driven luciferase expression in transfected LNCaP cells; assay type: cell-based, human; settings: for fold induction at 0.001 µM: Homo sapiens, LNCaP, 48 h
Source text: To assess the function of the DNA segment containing the enhancer, a series of constructs was generated by inserting the hKLK2 5'-flanking region, shown schematically in FIG. 2, upstream of the luciferase reporter gene. The activity of these fragments was compared with that of CN299, a plasmid with the full hKLK2 promoter (-605 to +33) driving the expression of firefly luciferase. The constructs are as follows:
To determine the effect of the 12 kbp 5'-flanking sequence on promoter activity, two constructs were created: CN299 and CN322. The hKLK2 promoter was cloned upstream of the luc gene to create CN299, as described in Example 2. The entire 12 kbp sequence upstream of the hKLK2 gene (including the promoter) was cloned upstream of the luc gene to create CN322, as described in Example 2. Each construct was then used to transfect LNCaP cells. The media in half of the dishes was supplemented with 0.5 nM R1881. The cells were harvested 48 hours post transfection and the luciferase activity was measured. […] At both R1881 concentrations tested, CN322 had higher activity than CN299.
To determine if the hKLK2 5'-flanking sequence did indeed contain an androgen responsive element, two experiments were conducted. In the first experiment, LNCaP cells were transfected with CN322, the transformants were incubated in medium containing various concentrations of R1881, and 48 hours after transfection, luciferase activity was measured. […] Peak induction of activity was estimated at 1 nM R1881, about 9 fold over the 0 nM activity.
(§2) Knowing that the PSA enhancer is tissue specific, a series of experiments was conducted to determine if the same was true for the hKLK2 enhancer. In the first experiment, LNCaP cells (a PSA-producing prostate cancer cell line) and 293s (a human embryonic kidney cell line) were transfected with CN299 or CN322 (Example 2). Half of the dishes were supplemented with 1 nM R1881, and the cells were harvested 48 hours post transfection. […] The results of this experiment again support the conclusion that the hKLK2 enhancer is androgen inducible.
as §1

[7] = test system: hKLK2 promoter/enhancer-luciferase constructs in 293 cells; test: hKLK2 promoter/enhancer-driven luciferase expression in transfected 293 cells; assay type: cell-based, human; settings: 1 nM R1881
Experimental: as §2

[8] = test system: CMV-Luc/LNCaP stable cell line; test: CMV-Luc/LNCaP stable cell line luciferase expression (control); assay type: cell-based, human; settings: 10-1000 nM androgen
Experimental: CMV-Luc/LNCaP Cell Line. Transfections of the control plasmid, CMV-Luc, into LNCaP cells were done in the same fashion as for PSE-Luc. The stable cell line CN1006, containing CMV-Luc, was obtained by selection with G418. The luciferase assay was performed as described above.
Luciferase Expression of CMV-Luc/LNCaP Stable Cell Line. LNCaP clones containing the CMV-Luc gene were screened for stable expression of the luciferase gene (i.e. selection of stable cell line). A 3-4 fold increase in expression levels over the uninduced cells was observed upon the addition of 10-1000 nM androgen. A similar androgen stimulation of CMV-Luc expression in transient transfection of LNCaP cells was reported by Pang et al., Hum. Gene Ther. (1995) 6:1417-1426. The slight increase in expression levels was attributed to cell proliferation resulting from increased R1881 addition.

C[C@]12CCC(=O)C[C@@H]1CC[C@@H]1[C@@H]2CC[C@]2(C)[C@@H](O)CC[C@@H]12 [DHT, dihydrotestosterone]
amount required relative to R1881 to obtain comparable luciferase activity [1]: approximately 100 fold | luciferase expression ([1]; DHT 100 and 200 nM): 2,500-3,000 RLUs | time within which metabolism occurs after addition to CN1013 cells [2]: 1 to 4 h | concentration when unexposed to CN1013 cells ([2]; medium without cells): remained constant | half-life at 0.01 µM [3]: ~1.1 h | amounts required for comparable expression relative to R1881 ([4]; CN1013): 100-200 fold

C[C@]1(O)CC[C@H]2[C@@H]3CCC4=CC(=O)CCC4=C3C=C[C@@]21C [R1881, methyl trienolone]
fold induction at 0.001 µM [5]: 1 to 2 | concentration giving peak levels of luciferase expression [1]: 1 nM | luciferase expression ([1]; 1-50 nM R1881, 48 hours): 3,000-3,500 RLUs | response of CN322 luciferase activity to concentration ([6]; CN322, LNCaP, 0-10 nM R1881): concentration dependent manner | fold induction of luciferase activity ([6]; CN379, same assay methods, R1881): approximately 54 fold | fold induction at 0.001 µM ([6]; read-out: fold induction of activity vs 0 nM R1881, CN299, LNCaP, 1 nM R1881, 48 hours): 2 to 3 | fold induction at 0.001 µM ([6]; read-out: fold induction of activity vs 0 nM R1881, CN322, LNCaP, 1 nM R1881, 48 hours (Example 5 first experiment, FIG. 6)): 17 | fold induction at 0.001 µM ([6]; read-out: fold induction of activity, CN322, LNCaP, 1 nM R1881, stripped serum media, 48 hours (FIG. 7)): ~100 | fold induction at 0.001 µM ([6]; read-out: fold induction of activity, CN355, LNCaP, 1 nM R1881, stripped serum media, 48 hours (FIG. 7)): 35 | fold induction at 0.001 µM ([6]; read-out: peak induction of luciferase activity over the 0 nM activity, CN322, LNCaP, 1 nM R1881, 48 hours after transfection): ~9 | change of luciferase activity ([7]; CN299, 293 cells): reduction of activity | change of luciferase activity ([7]; CN322, 293 cells): reduction of luciferase activity | fold increase in expression levels over uninduced cells [8]: 3-4 fold | concentration giving peak values of induction ([4]; CN1013): 0.1 to 1 nM | EC50 ([4]; Homo sapiens, LNCaP, read-out: EC50 of luciferase induction): 0.075 nM | fold induction of luciferase ([4]; subclone CN1013.7): 100-200 fold

CC(=O)O[C@]1(C(C)=O)CC[C@H]2[C@@H]3C=C(Cl)C4=CC(=O)[C@@H]5C[C@@H]5[C@]4(C)[C@H]3CC[C@@]21C [cyproterone acetate]
inhibition of luciferase expression after induction with 1 nM R1881 [4]: neither inhibition nor induction | concentration, relative to R1881, giving luciferase expression levels similar to R1881 [4]: 100-1,000 fold | luciferase expression at physiological concentrations [4]: zero or minimal expression

CC(C)(O)C(=O)Nc1ccc([N+](=O)[O-])c(C(F)(F)F)c1 [hydroxyflutamide]
inhibition of luciferase expression after induction with 1 nM R1881 [4]: neither inhibition nor induction | concentration, relative to R1881, giving luciferase expression levels similar to R1881 [4]: 100-1,000 fold | luciferase expression at physiological concentrations [4]: zero or minimal expression

CC1=C(/C=C/C(C)=C/C=C/C(C)=C/C(=O)O)C(C)(C)CCC1 [retinoic acid]
induction or inhibition of CN1013 luciferase ([4]; CN1013, non-steroidal ligand unrelated to androgen receptor): did not result in either induction or inhibition
